Data published in patent publication US20100015058A1, “RADIOLABELED BBN-RGD HETERODIMERS FOR CANCER TARGETING” (STANFORD UNIVERSITY, priority 2008, published 2010).

Key:
in vivo [1] = assay: in vivo; design: species or system mice; conditions: female, BALB/c, mouse, iv, 3.7 MBq, total radioactivity
Protocol: The 4T1 murine breast cancer cell line was purchased from American Type Culture Collection and grown in RMPI 1640 medium (Invitrogen Corp.) supplemented with 10% (v/v) fetal bovine serum (Invitrogen) at 37° C. with 5% CO2. The 4T1 tumor model was generated by subcutaneous injection of 5×10^6 tumor cells into the left front flank of female normal BALB/c mice (Harlan).
Five-minute static PET images were then acquired at 2 h after injection (n=3/group).

in vivo [2] = assay: in vivo; design: species or system mice; conditions: BALB/c, mouse, iv, 370 kBq, total radioactivity, pancreatic uptake
Protocol: All mice were sacrificed at 1 h after injection of the tracer. Blood, tumor, and major organs and tissues were collected and wet-weighed. Stomach and intestines were cleaned of their contents in this experiment. The radioactivity in the tissue was measured using a g-counter (Packard). The results were presented as percentage injected dose per gram of tissue (% ID/g). Values were expressed as mean 6 SD (n=4/group).

**Q.** For CSCC[C@H](NC(=O)[C@H](CC(C)C)NC(=O)[C@H](Cc1c[nH]cn1)NC(=O)CNC(=O)[C@@H](NC(=O)[C@H](C)NC(=O)[C@H](Cc1c[nH]c2ccccc12)NC(=O)[C@H](CCC(N)=O)NC(=O)CCCCCNC(=O)CC[C@H](NC(=S)Nc1ccc(C[C@H]2CN(CC(=O)O)CCN(CC(=O)O)CCN2CC(=O)O)cc1)C(=O)NCCCC[C@@H]1NC(=O)[C@@H](Cc2ccc(O)cc2)NC(=O)[C@H](CC(=O)O)NC(=O)CNC(=O)[C@H](CCCNC(=N)N)NC1=O)C(C)C)C(N)=O [^64Cu-NOTA-RGD-BBN, metal not drawn], which tissue uptake at 2 h (in vivo [1]) is on record?
**A.** 1.88 ± 0.28 %ID/g

**Q.** What about the tissue uptake at 1 h (in vivo [2]) of the same compound?
**A.** 7.03 ± 1.96 %ID/g
